Literature values as cited in patent US20140335365A1, “GYPSUM BOARD HAVING MOLD RESISTANCE” (priority 2007, published 2014).
Read-outs that look alike come from different tables or passages of the source.

Q: Which results are given for `CCCCNC(=O)OCC#CI` [IPBC, 3-iodo-2-propyl butyl carbamate]?
A: water solubility: 156 ppm; water solubility (Table 1, anti-mold agents used): 156 ppm

Q: What does the source list for `[O-][n+]1ccccc1[S][Na]` [SPT, (2-pyridinethiol-1-oxide) sodium]?
A: water solubility: 530000 ppm; water solubility (Table 1, anti-mold agents used): 530000 ppm

Q: Which results are given for `c1ccc2[nH]c(-c3cscn3)nc2c1` [TBZ, 2-(4-thiazolyl)-benzimidazole]?
A: water solubility: 30 ppm; water solubility (Table 1, anti-mold agents used): 30 ppm

Q: Which water solubility does the source give for `N#CSCSc1nc2ccccc2s1` [TCMTB, 2-(4-thiocyanomethylthio)benzothiazole] here?
A: Its water solubility is 330 ppm.

Q: With `[O-]n1ccccc1=S.[O-]n1ccccc1=S.[Zn+2]` [ZPT, Bis[1-hydroxy-2(1H)pyridinethionato]zinc] as the molecule, how does the water solubility read?
A: The water solubility was 15 ppm.

Q: For `Cc1ccc(S(=O)(=O)C(I)I)cc1` [diiodomethyl-p-tolylsulfone, 1-[(diiodomethyl)sulfonyl]-4-methylbenzene], which water solubility is on record?
A: The water solubility was 100 ppm.

Q: With `O=C1c2ccccc2C(=O)N1SC(F)(Cl)Cl` [fluor-folpet, N-(fluorodichloromethylthio)-phthalimide] as the molecule, how does the water solubility read?
A: The water solubility was “insoluble”.

Q: With `Oc1cc(Cl)ccc1Oc1ccc(Cl)cc1Cl` [triclosan, 2,4,4′-trichloro-2′-hydroxydiphenylether] as the molecule, how does the water solubility read?
A: The water solubility was 10 ppm.
